Patent US20210138025A1, “CATIONIC PEPTIDES WITH IMMUNOMODULATORY AND/OR ANTI-BIOFILM ACTIVITIES” (priority 2018, published 2021)
Non-standard residues stand in square brackets, D forms with d. No end group written: not given here.

Legend:
[1] = test system: S. aureus (methicillin resistant clinical isolate C623); assay: Biofilm inhibition, static microtitre plate assay, crystal violet (Table 17; FIG. 19); conditions: 10% tryptic soy broth with 0.1% glucose
[2] = test system: Salmonella typhimurium (ATCC 14028); assay: Biofilm inhibition, static microtitre plate assay, crystal violet (Table 17); conditions: BM2 minimal media
[3] = test system: P. aeruginosa (PAO1); assay: Biofilm inhibition, static microtitre plate assay, crystal violet (Table 17; FIG. 19); conditions: BM2 minimal media
[4] = test system: E. coli O157:H7; assay: Biofilm inhibition, static microtitre plate assay, crystal violet (Table 17); conditions: BM2 minimal media
[5] = test system: S. aureus (Sau); type: cell-based; conditions: Sau
[6] = test system: E. coli (Ec); type: cell-based; conditions: Ec
[7] = test system: E. coli (Ec); type: cell-based; conditions: Ec; remark: listed apart in the source
Description: (§1) The same strains as in Table 18 were assessed for Minimal Biofilm Inhibitory Concentrations (MBIC) (Table 19). Italics=excellent activity (less than or equal to 4 μg/ml). ND=Not determined. Peptides 3013, 3015 and 3016 inhibited biofilm growth in the largest number of bacterial strains (5, 5 and 6 out of 13 strains, respectively).
(§2) In addition, several peptides expressed preferential activity vs. biofilms (MBIC) cf. planktonic cells (MIC) (Table 20).

[8] = test system: S. aureus (Sau); type: cell-based; conditions: Sau; remark: listed apart in the source
Description: as §1, §2

[9] = test system: PBMCs; assay: Cytotoxicity towards PBMCs, lactate dehydrogenase (LDH) release assay (Tables 6, 7); conditions: SPOT synthesized peptide ~25 μM, PBMCs from 3 human donors; Table 6
[10] = test system: planktonic methicillin resistant S. aureus; assay: microbe, parasite or virus in culture; type: cell-based, Staphylococcus aureus; conditions: planktonic methicillin resistant
[11] = test system: Streptococcus suis (Ss); type: cell-based
Description: (§3) The following strains were assessed vs. Staphylococcus epidermidis (Se), Pseudomonas aeruginosa (Pa), Streptococcus dysgalactiae (Sd), Pasteurella multocida (Pm), Streptococcus agalactiae (Sa), Streptococcus uberis (Su), Streptococcus suis (Ss), Mannheimia haemolytica (Mh), Bordatella bronchiseptica (Bb), Histophilus somnus (Hs), and Staphylococcus pseudintermedius (Sp) (Table 18) for Minimal Inhibitory Concentrations (MIC). Italics=excellent activity (less than or equal to 4 μg/ml).

[12] = test system: Staphylococcus pseudintermedius (Sp); type: cell-based
Description: as §3

[13] = test system: Bordatella bronchiseptica (Bb); type: cell-based
Description: as §3

[14] = test system: Streptococcus dysgalactiae (Sd); type: cell-based
Description: as §3

[15] = test system: Streptococcus agalactiae (Sa); type: cell-based
Description: as §3

[16] = test system: Histophilus somnus (Hs); type: cell-based
Description: as §3

[17] = test system: Staphylococcus epidermidis (Se); type: cell-based
Description: as §3

[18] = test system: Pasteurella multocida (Pm); type: cell-based
Description: as §3

[19] = test system: Mannheimia haemolytica (Mh); type: cell-based
Description: as §3

[20] = test system: Streptococcus uberis (Su); type: cell-based
Description: as §3

[21] = test system: Pseudomonas aeruginosa (Pa); type: cell-based
Description: as §3

[22] = test system: Streptococcus suis (Ss); type: cell-based; remark: listed apart in the source
Description: as §1

[23] = test system: Staphylococcus pseudintermedius (Sp); type: cell-based; remark: listed apart in the source
Description: as §1

[24] = test system: Bordatella bronchiseptica (Bb); type: cell-based; remark: listed apart in the source
Description: as §1

[25] = test system: Streptococcus dysgalactiae (Sd); type: cell-based; remark: listed apart in the source
Description: as §1

[26] = test system: Streptococcus agalactiae (Sa); type: cell-based; remark: listed apart in the source
Description: as §1

[27] = test system: Histophilus somnus (Hs); type: cell-based; remark: listed apart in the source
Description: as §1

[28] = test system: Staphylococcus epidermidis (Se); type: cell-based; remark: listed apart in the source
Description: as §1

[29] = test system: Pasteurella multocida (Pm); type: cell-based; remark: listed apart in the source
Description: as §1

[30] = test system: Mannheimia haemolytica (Mh); type: cell-based; remark: listed apart in the source
Description: as §1

[31] = test system: Streptococcus uberis (Su); type: cell-based; remark: listed apart in the source
Description: as §1

[32] = test system: Pseudomonas aeruginosa (Pa); type: cell-based; remark: listed apart in the source
Description: as §1

IWLRLKVVLKRK (not fully specified; also: D-amino acid(s), positions not given here) [Peptide D-3006]
peptide concentration that inhibited more than 90% of adhered biofilm biomass, S. aureus (C623) [1]: 4 µM
peptide concentration that inhibited more than 90% of adhered biofilm biomass, S. typhimurium (ATCC 14028) [2]: 2 µM
peptide concentration that inhibited more than 90% of adhered biofilm biomass, P. aeruginosa (PAO1) [3]: 2 µM
peptide concentration that inhibited more than 90% of adhered biofilm biomass, E. coli (O157:H7) [4]: 2 µM

KRKLVVKLRLWI ([dK][dR][dK][dL][dV][dV][dK][dL][dR][dL][dW][dI]) [RI-3006]
peptide concentration that inhibited more than 90% of adhered biofilm biomass, S. aureus (C623) [1]: 8 µM
peptide concentration that inhibited more than 90% of adhered biofilm biomass, S. typhimurium (ATCC 14028) [2]: 4 µM
peptide concentration that inhibited more than 90% of adhered biofilm biomass, P. aeruginosa (PAO1) [3]: 4 µM
peptide concentration that inhibited more than 90% of adhered biofilm biomass, E. coli (O157:H7) [4]: 4 µM

KVVWIKVKIKLV ([dK][dV][dV][dW][dI][dK][dV][dK][dI][dK][dL][dV]) [RI-3007]
peptide concentration that inhibited more than 90% of adhered biofilm biomass, S. aureus (C623) [1]: 16 µM
peptide concentration that inhibited more than 90% of adhered biofilm biomass, S. typhimurium (ATCC 14028) [2]: 16 µM
peptide concentration that inhibited more than 90% of adhered biofilm biomass, P. aeruginosa (PAO1) [3]: 32 µM
peptide concentration that inhibited more than 90% of adhered biofilm biomass, E. coli (O157:H7) [4]: 16 µM

LWQLWLKLKLKG-NH2 [Peptide 3013, LWQLWLKLKLKG]
MIC S. aureus [5]: >64 µg/mL
MIC Sau [5]: >64 µg/mL
MIC E. coli [6]: >64 µg/mL
MIC Ec [6]: >64 µg/mL
MBIC [7]: >64 µg/mL
MBIC E. coli [7]: >64 µg/mL
MBIC [8]: 32 µg/mL
MBIC S. aureus [8]: 32 µg/mL
% Toxicity (LDH Release) [9]: 14.1%
MIC (μM) MHB [10]: 32 µM
MIC (μM) TSB with 1% Glucose [10]: >64 µM
MIC Ss [11]: 64 µg/mL
MIC Sp [12]: <1 µg/mL
MIC Bb [13]: 16 µg/mL
MIC Sd [14]: 2 µg/mL
MIC Sa [15]: 2 µg/mL
MIC Hs [16]: 2 µg/mL
MIC Se [17]: 2 µg/mL
MIC Pm [18]: 32 µg/mL
MIC Mh [19]: >64 µg/mL
MIC Su [20]: 4 µg/mL
MIC Pa [21]: >64 µg/mL
MBIC [22]: 16 µg/mL
MBIC [23]: 1 µg/mL
MBIC [24]: >64 µg/mL
MBIC [25]: 2 µg/mL
MBIC [26]: 32 µg/mL
MBIC [27]: 4 µg/mL
MBIC [28]: >64 µg/mL
MBIC [29]: 2 µg/mL
MBIC [30]: >64 µg/mL
MBIC [31]: 8 µg/mL
MBIC [32]: >64 µg/mL

QLARLARVVWGL-NH2 [Peptide 3010, QLARLARVVWGL]
MIC S. aureus [5]: >64 µg/mL
MIC Sau [5]: >64 µg/mL
MIC E. coli [6]: >64 µg/mL
MIC Ec [6]: >64 µg/mL
MBIC [7]: 32 µg/mL
MBIC E. coli [7]: 32 µg/mL
MBIC [8]: 64 µg/mL
MBIC S. aureus [8]: 64 µg/mL
% Toxicity (LDH Release) [9]: −2.4%
MIC (μM) MHB [10]: >64 µM
MIC (μM) TSB with 1% Glucose [10]: >64 µM
MIC Ss [11]: >64 µg/mL
MIC Sp [12]: 64 µg/mL
MIC Bb [13]: >64 µg/mL
MIC Sd [14]: 32 µg/mL
MIC Sa [15]: >64 µg/mL
MIC Hs [16]: 64 µg/mL
MIC Se [17]: >64 µg/mL
MIC Pm [18]: >64 µg/mL
MIC Mh [19]: >64 µg/mL
MIC Su [20]: 64 µg/mL
MIC Pa [21]: >64 µg/mL
MBIC [22]: >64 µg/mL
MBIC [23]: 64 µg/mL
MBIC [24]: >64 µg/mL
MBIC [25]: 16 µg/mL
MBIC [26]: >64 µg/mL
MBIC [27]: 64 µg/mL
MBIC [28]: >64 µg/mL
MBIC [29]: 4 µg/mL
MBIC [30]: >64 µg/mL
MBIC [31]: 32 µg/mL
MBIC [32]: >64 µg/mL

RRWIRVAVILRV ([dR][dR][dW][dI][dR][dV][dA][dV][dI][dL][dR][dV]) [RI-1018, reference compound]
peptide concentration that inhibited more than 90% of adhered biofilm biomass, S. aureus (C623) [1]: 8 µM
peptide concentration that inhibited more than 90% of adhered biofilm biomass, S. typhimurium (ATCC 14028) [2]: 2 µM
peptide concentration that inhibited more than 90% of adhered biofilm biomass, P. aeruginosa (PAO1) [3]: 4 µM
peptide concentration that inhibited more than 90% of adhered biofilm biomass, E. coli (O157:H7) [4]: 1 µM
